Test results taken from PubChem BioAssay AID1259408 (Genetic Toxicology Data Bank (GENE-TOX), 2018).
The source made the active and inactive calls. The rule behind the calls is not given here.

Tested on: GENE-TOX genotoxicity assays, various organisms and cells
Assay: GENE-TOX mutagenicity studies
Details: for call: Assay Type: In vivo carcinogenicity studies
[1] = Species/Cell Type: Human, Assay Type: Sister-chromatid exchange (SCE) in vitro, Assay Code: SC1+, Evaluation Type: Evaluation B (Post-1980)
[2] = Species/Cell Type: Nonhuman, Assay Code: CCGT, Evaluation Type: Evaluation A (Pre-1980)
[3] = Species/Cell Type: Saccharomyces cerevisiae, Assay Type: Mitotic recombination or gene conversion, Assay Code: YEC+, Evaluation Type: Evaluation A (Pre-1980)
[4] = Species/Cell Type: Salmonella typhimurium (one or more of the five standard strains: TA98, TA100, TA1535, TA1537, and TA1538), Assay Type: Histidine reverse gene mutation, Ames assay, Assay Code: SAL+, Evaluation Type: Evaluation A (Pre-1980)
[5] = Species/Cell Type: Human lymphocytes, Assay Type: Sister-chromatid exchange (SCE) in vitro, Assay Code: SCL+D, Dose Response: With dose response, Evaluation Type: Evaluation B (Post-1980)
[6] = Species/Cell Type: Human, Assay Type: Sister-chromatid exchange (SCE) in vitro, Assay Code: SC1+D, Dose Response: With dose response, Evaluation Type: Evaluation B (Post-1980)
[7] = Species/Cell Type: Nonhuman, Assay Type: Sister-chromatid exchange (SCE) in vitro, Assay Code: SC2+, Evaluation Type: Evaluation B (Post-1980)
[8] = Species/Cell Type: Nonhuman, Assay Type: Sister-chromatid exchange (SCE) in vivo, Assay Code: SC3+D, Dose Response: With dose response, Evaluation Type: Evaluation B (Post-1980)
[9] = Species/Cell Type: Salmonella typhimurium (one or more of the five standard strains: TA98, TA100, TA1535, TA1537, and TA1538), Assay Type: Histidine reverse gene mutation, Ames assay, Assay Code: SALT, Evaluation Type: Evaluation A (Pre-1980)

Structure (SMILES): [N-]=[N+]=[N-]
- mutagenic call (Species/Cell Type: Arabidopsis species, Assay Type: Gene mutation, Assay Code: ARMT, Evaluation Type: Evaluation A (Pre-1980)): no conclusion
- mutagenic call (Species/Cell Type: Drosophila melanogaster, Assay Type: Sex-linked recessive lethal gene mutation, Assay Code: SRL+, Evaluation Type: Evaluation A (Pre-1980)): active; positive
- mutagenic call (Species/Cell Type: Escherichia coli WP2, Assay Type: Tryptophan reverse gene mutation, Assay Code: WP2T, Evaluation Type: Evaluation A (Pre-1980)): no conclusion
- mutagenic call (Species/Cell Type: Escherichia coli WP2 UVRA, Assay Type: Tryptophan reverse gene mutation, Assay Code: WPU-, Evaluation Type: Evaluation A (Pre-1980)): inactive; negative
- mutagenic call (Species/Cell Type: Glycine max (soybean), Assay Type: Gene mutation, Assay Code: GLM+, Evaluation Type: Evaluation A (Pre-1980)): active; positive
- mutagenic call (Species/Cell Type: Hordeum vulgare (barley), Assay Type: Gene mutation, Assay Code: HOM+, Evaluation Type: Evaluation A (Pre-1980)): active; positive
- mutagenic call (Species/Cell Type: Human diploid fibroblasts, Assay Type: Unscheduled DNA synthesis (UDS) in vitro, DNA effects, Assay Code: UDH-, Evaluation Type: Evaluation A (Pre-1980)): inactive; negative
- mutagenic call (Species/Cell Type: Human lymphocytes or leukocytes, Assay Type: Chromosome aberrations in vitro, Assay Code: CY7-, Evaluation Type: Evaluation A (Pre-1980)): inactive; negative
- mutagenic call (Species/Cell Type: Human lymphocytes, Assay Type: Sister-chromatid exchange (SCE) in vitro, Assay Code: SCL+, Evaluation Type: Evaluation B (Post-1980)): active; positive
- mutagenic call [1]: active; positive
- mutagenic call (Species/Cell Type: Mouse lymphoma (L5178Y) cells, Assay Type: Forward gene mutation at the thymidine kinase (TK) locus, chromosome aberrations, Assay Code: L51+, Evaluation Type: Evaluation A (Pre-1980)): active; positive
- mutagenic call (Species/Cell Type: Mouse, Sex: Male, Assay Type: Sperm morphology, Assay Code: SPI-, Evaluation Type: Evaluation A (Pre-1980)): inactive; negative
- call [2]: no conclusion
- mutagenic call (Species/Cell Type: Saccharomyces cerevisiae, Assay Type: Forward gene mutation, Assay Code: YEF+, Evaluation Type: Evaluation A (Pre-1980)): active; positive
- mutagenic call [3]: active; positive
- mutagenic call (Species/Cell Type: Saccharomyces cerevisiae, Assay Type: Reverse gene mutation, Assay Code: YER+*, Activation: With metabolic activation, Evaluation Type: Evaluation A (Pre-1980)): active; positive
- mutagenic call [4]: active; positive
- mutagenic call (Species/Cell Type: Tradescantia species, Assay Type: Chromosome aberrations, Assay Code: TRC+D, Dose Response: With dose response, Evaluation Type: Evaluation A (Pre-1980)): active; positive
- mutagenic call (Species/Cell Type: Tradescantia species, Assay Type: Gene mutation, Assay Code: TRM+D, Dose Response: With dose response, Evaluation Type: Evaluation A (Pre-1980)): active; positive
- mutagenic call (Species/Cell Type: Zea mays (corn), Assay Type: Gene mutation, Assay Code: ZEM+D, Dose Response: With dose response, Evaluation Type: Evaluation A (Pre-1980)): active; positive

Structure (SMILES): O=c1[nH]c(=O)n([C@H]2C[C@H](O)[C@@H](COP(=O)(O)O)O2)cc1[N+](=O)[O-]
- mutagenic call [5]: active; positive
- mutagenic call [6]: active; positive

Structure (SMILES): CCOP(=S)(OCC)SCSc1ccc(Cl)cc1
- mutagenic call [1]: active; positive

Structure (SMILES): C#CC(OC(=O)NC1CCCCC1)(c1ccccc1)c1ccccc1
- mutagenic call (Species/Cell Type: Human diploid fibroblasts, Assay Type: Unscheduled DNA synthesis (UDS) in vitro, DNA effects, Assay Code: UDHT, Evaluation Type: Evaluation A (Pre-1980)): no conclusion
- mutagenic call [4]: active; positive

Structure (SMILES): Cc1ccc2cc3c(ccc4ccccc43)c3c2c1CC3=O
- mutagenic call (Species/Cell Type: Chinese hamster lung (V79) cells, Assay Type: Forward gene mutation at the HPRT or ouabain locus, Assay Code: V79+, Evaluation Type: Evaluation A (Pre-1980)): active; positive
- call [2]: no conclusion
- mutagenic call (Species/Cell Type: Salmonella typhimurium (one or more of the five standard strains: TA98, TA100, TA1535, TA1537, and TA1538), Assay Type: Histidine reverse gene mutation, Ames assay, Assay Code: SAL+*, Activation: With metabolic activation, Evaluation Type: Evaluation A (Pre-1980)): active; positive

Structure (SMILES): O=C(CNC(=O)c1ccccc1)NO
- mutagenic call [4]: active; positive

Structure (SMILES): [Cl][Tb]([Cl])[Cl]
- mutagenic call (Species/Cell Type: Bacillus subtilis (H17 vs M45), Assay Type: Rec-assay, spot test, DNA effects (bacterial DNA repair), Assay Code: REW-, Evaluation Type: Evaluation A (Pre-1980)): inactive; negative

Structure (SMILES): O=[As](=O)O[As](=O)=O
- mutagenic call (Species/Cell Type: Bacillus subtilis (H17 vs M45), Assay Type: Rec-assay, spot test, DNA effects (bacterial DNA repair), Assay Code: REW+, Evaluation Type: Evaluation A (Pre-1980)): active; positive
- mutagenic call [7]: active; positive

Structure (SMILES): ClC(Cl)Cl
- mutagenic call (Species/Cell Type: Chinese hamster lung (V79) cells, Assay Type: Forward gene mutation at the HPRT or ouabain locus, Assay Code: V79-, Evaluation Type: Evaluation A (Pre-1980)): inactive; negative
- mutagenic call [5]: active; positive
- mutagenic call [6]: active; positive
- mutagenic call (Species/Cell Type: Mammalian polychromatic erythrocytes, Assay Type: Micronucleus test, chromosome aberrations, Assay Code: MNTT, Evaluation Type: Evaluation A (Pre-1980)): no conclusion
- mutagenic call (Species/Cell Type: Mouse, Sex: Male, Assay Type: Sperm morphology, Assay Code: SPIT, Evaluation Type: Evaluation A (Pre-1980)): no conclusion
- call (Species/Cell Type: Nonhuman, Assay Code: CCG+, Evaluation Type: Evaluation A (Pre-1980)): active; positive
- mutagenic call (Species/Cell Type: Nonhuman, Assay Type: Sister-chromatid exchange (SCE) in vitro, Assay Code: SC2T, Evaluation Type: Evaluation B (Post-1980)): no conclusion
- mutagenic call [8]: active; positive
- mutagenic call [3]: active; positive
- mutagenic call (Species/Cell Type: Saccharomyces cerevisiae, Assay Type: Mitotic recombination or gene conversion, Assay Code: YEH+, Evaluation Type: Evaluation A (Pre-1980)): active; positive
- mutagenic call (Species/Cell Type: Saccharomyces cerevisiae, Assay Type: Reverse gene mutation, Assay Code: YER+, Evaluation Type: Evaluation A (Pre-1980)): active; positive
- mutagenic call (Species/Cell Type: Syrian hamster embryo (SA7/SHE) cells, Assay Type: Cell transformation, viral enhanced, Assay Code: CT7-, Evaluation Type: Evaluation A (Pre-1980)): inactive; negative

Structure (SMILES): O=C(O)[C@@H]1CCCN1[N+](=O)[O-]
- mutagenic call [9]: no conclusion

Structure (SMILES): Cc1ccc(O)cc1
- mutagenic call (Species/Cell Type: Allium cepa, Assay Type: Chromosome aberrations, Assay Code: ALCT, Evaluation Type: Evaluation A (Pre-1980)): no conclusion
- mutagenic call (Species/Cell Type: Human lymphocytes, Assay Type: Sister-chromatid exchange (SCE) in vitro, Assay Code: SCLT, Evaluation Type: Evaluation B (Post-1980)): no conclusion
- mutagenic call (Species/Cell Type: Human, Assay Type: Sister-chromatid exchange (SCE) in vitro, Assay Code: SC1-, Evaluation Type: Evaluation B (Post-1980)): inactive; negative
- mutagenic call (Species/Cell Type: Nonhuman, Assay Type: Sister-chromatid exchange (SCE) in vivo, Assay Code: SC3T, Evaluation Type: Evaluation B (Post-1980)): no conclusion

Structure (SMILES): O=NN(CCCCO)CCCCO
- mutagenic call [9]: no conclusion

Structure (SMILES): CN(C)C(c1ccccc1)(c1ccccc1)N(C)C
- mutagenic call (Species/Cell Type: Salmonella typhimurium (one or more of the five standard strains: TA98, TA100, TA1535, TA1537, and TA1538), Assay Type: Histidine reverse gene mutation, Ames assay, Assay Code: SAL-, Evaluation Type: Evaluation A (Pre-1980)): inactive; negative

Structure (SMILES): O=[N+]([O-])c1ccc(-c2ccccc2)cc1
- mutagenic call (Species/Cell Type: Escherichia coli polA (W3119 vs P3478), Assay Type: Rec-assay, DNA effects (bacterial DNA repair), Assay Code: RE1+, Evaluation Type: Evaluation A (Pre-1980)): active; positive
- mutagenic call (Species/Cell Type: Neurospora crassa, Assay Type: Aneuploidy, chromosome aberrations, Assay Code: NEN-, Evaluation Type: Evaluation A (Pre-1980)): inactive; negative
- call (Species/Cell Type: Nonhuman, Assay Code: CCG+L, Evaluation Type: Evaluation A (Pre-1980)): active; positive
- mutagenic call [7]: active; positive
- mutagenic call [8]: active; positive
- mutagenic call (Species/Cell Type: Saccharomyces cerevisiae, Assay Type: Mitotic recombination or gene conversion, Assay Code: YEH-, Evaluation Type: Evaluation A (Pre-1980)): inactive; negative
- mutagenic call [4]: active; positive
- mutagenic call (Species/Cell Type: Salmonella typhimurium, Assay Type: Forward and reverse gene mutation, host-mediated assay, Assay Code: HMA+, Evaluation Type: Evaluation A (Pre-1980)): active; positive
- mutagenic call (Species/Cell Type: Syrian hamster embryo (SA7/SHE) cells, Assay Type: Cell transformation, viral enhanced, Assay Code: CT7+, Evaluation Type: Evaluation A (Pre-1980)): active; positive
- mutagenic call (Species/Cell Type: Syrian hamster embryo (SHE) cells, Assay Type: Cell transformation, clonal assay, Assay Code: CTC+, Evaluation Type: Evaluation A (Pre-1980)): active; positive

Structure (SMILES): CC#CC(OC(=O)NC1CCCCC1)(c1ccccc1)c1ccccc1
- mutagenic call [4]: active; positive
